# Reference: publication PMC9399069, “Imaging PARP with [^18F]rucaparib in pancreatic cancer models” (European Journal of Nuclear Medicine and Molecular Imaging, 2022)
# Assays:
# PSN1 cells [1] = experiment: Uptake and retention of radiolabelled PARP inhibitors in PSN1 cells treated with DNA-damaging reagents; type: cell-based, human; settings: 100 μM, 3 h, retention at 3 h
# Experimental: (§1) AsPC1 (1 × 10^5 cells/well) and PSN1 cells (7.5 × 10^4 cells/well) were exposed to methyl methanesulfonate (MMS) or temozolomide (TMZ) (100 μM, in a total of 270 μL growth medium) for 3 h at 37 °C. Additionally, [^18F]rucaparib (500 kBq, 3.6 GBq/μmol; [^TotalF]rucaparib final concentration: 301 nM) or [^18F]olaparib (400 kBq, 8.5 GBq/μmol; [^TotalF]olaparib final concentration: 300 nM) was added, and the cells were incubated at 37 °C for 30 min. Cell culture medium was removed, and cells were washed with PBS. For cell retention, fresh medium (300 μL) was added to the cells. Cells were then further incubated at 37°C for 3 h. Cell culture medium was removed, and the amount of ^18F in the cell lysates was measured as above. Protein expression of the cells after DNA-damaging treatments (or PARP inhibitors 10 μM) was performed using flow cytometry as above.
# AsPC1 cells [2] = experiment: Protein expression by flow cytometry after PARP inhibitors or DNA-damaging reagents, AsPC1 cells; type: cell-based, human; settings: 3 h
# Experimental: (§2) Relative expression of PARP1, 2 and 3, ALDH2 and IMPDH2 was determined by flow cytometry. Cells (1 × 10^6 cells/well) were seeded in 96-well plates in growth medium, washed with FACS buffer (PBS, 2% FBS, 1 mM EDTA, 0.1% NaN3) and centrifuged at 500×g for 5 min. Immunostaining was performed using the Foxp3/transcription factor staining buffer set (eBioscience^TM, USA). Intracellular staining was conducted in permeabilisation buffer for 30 min at 4 °C in the dark using the following antibodies: AF488-conjugated anti-PARP-1 (1:100; sc-80070), AF594-conjugated anti-PARP-2 (1:100; sc-393310), anti-PARP-3 (1:100; sc-390771) or anti-PARP-tankyrase-1/2 (1:100; sc-365897) from Santa Cruz Biotechnology Inc. (USA), AF488-conjugated anti-IMPDH2 (1:500; ab-200770) from Abcam plc. (UK) and AF488-conjugated anti-ALDH2 (1:100, ABIN6817568) from Antibodies-online GmbH (UK). Fixable viability dye ef780 (1:4000; eBioscience^TM; 65-0865-14) was used for live and dead cells discrimination. Fixation of immunostained cells was performed for 15 min at room temperature. Flow cytometry was conducted on the CytoFLEX benchtop flow cytometer (Beckman Coulter, USA), with appropriate lasers and filters, positive and negative controls. Data were analysed using FlowJo^TM (Tree Star Inc., BD Biosciences, USA).
# as §1
# AsPC1 cells [3] = experiment: Uptake and retention of radiolabelled PARP inhibitors in AsPC1 cells treated with DNA-damaging reagents; type: cell-based, human; settings: 100 μM, 3 h, retention at 3 h
# Experimental: as §1
# PSN1 cells [4] = experiment: Protein expression by flow cytometry after PARP inhibitors or DNA-damaging reagents, PSN1 cells; type: cell-based, human; settings: 3 h
# Experimental: as §2, §1
# breast cancer xenografts = test system: breast cancer xenografts; parameters: method as in PMID 27841728, PMID 27069769; settings: 1 h post-injection; cited from earlier work
# AsPC1 cells [5] = experiment: Cell retention of [18F]rucaparib and [18F]olaparib in AsPC1 cells; type: cell-based, human; settings: for Efflux: fraction exiting cells: in the first 10–30 min, biphasic efflux
# Experimental: (§3) AsPC1 (1 × 10^5 cells/well) and PSN1 cells (7.5 × 10^4 cells/well) were exposed to [^18F]rucaparib (100 kBq, 4.8 GBq/μmol; [^TotalF]rucaparib final concentration: 258 nM) or [^18F]olaparib (400 kBq, 2.8 GBq/μmol: [^TotalF]olaparib final concentration: 242 nM) in 24-well plates at 37 °C for 30 min. Cell culture medium was removed, and cells were washed with PBS, followed by the addition of fresh medium (300 μL). Cells were then further incubated at 37 °C. Cell culture medium was removed, and cells were washed with PBS at different times (0–3 h). Cells were lysed using RIPA buffer for 15 min at room temperature, and the amount of ^18F in the cell lysates was measured as above.
# SW620 cells = test system: SW620 cells; parameters: method as in PMID 24556618; settings: cited from earlier work
# pancreatic cancer = settings: phase II, pancreatic cancer patients with BRCA1/2 and PALB2 variants; cited from earlier work
# [6] = parameters: method as in PMID 24216281, PMID 26438157; settings: 10 mg/kg, administered orally or intraperitoneally; cited from earlier work
# PSN1 xenografts [7] = experiment: Autoradiography of PSN1 tumour sections; type: in vivo, Balb/c nu/nu mice; settings: unlabelled drug 0.5 mg co-administered
# Experimental: Ex vivo localisation of [^18F]rucaparib in PSN1 xenografts was determined using autoradiography of tumour sections (10 μm). Uptake in the same tumour sections was compared to immunohistochemistry staining for PARP1, 2 and 3. Full details of procedures and protocols are provided in Supplemental Information.
# PSN1 xenograft tissues were harvested and immediately flash-frozen using liquid nitrogen, and sectioned (10 µm) using a Leica CM1950 cryostat. Tissue sections were thaw-mounted onto Superfrost PLUS glass microscope slides (Menzel-Glaser, Thermo Scientific) and allowed to dry briefly at room temperature (RT). The slides were then fixed in 10% neutral buffered formalin […] (NBF) for 10 min at RT, dried, and exposed to a storage phosphor screen (PerkinElmer, Super Resolution, 12.5 x 25.2 cm) in a standard X-ray cassette for 15 h at 4 °C. The phosphor screen was then imaged using a Cyclone® Plus Storage Phosphor System (PerkinElmer).
# PSN1 cells [8] = experiment: Cell retention of [18F]rucaparib and [18F]olaparib in PSN1 cells; type: cell-based, human; settings: for Efflux: fraction exiting cells: in the first 10–30 min, biphasic efflux
# Experimental: as §3
# PSN1 xenografts [9] = test system: PSN1 xenografts; parameters: method as in PMID 30389822; settings: cited from earlier work
# [10] = parameters: method as in PMID 25895168, PMID 26337803, PMID 27689533; settings: relatively low tumour uptake; cited from earlier work
smiles,measurement,setting,value
"Cn1nnc2c(C(N)=O)ncn2c1=O [TMZ, temozolomide]",Cell association and retention of [TotalF]rucaparib and [TotalF]olaparib after exposure to DNA-damaging reagent,PSN1 cells [1],increased
same,Upregulation of PARP proteins,"AsPC1 cells [2]; 100 μM, flow cytometry",< 10%
same,γH2AX expression,"AsPC1 cells [2]; 100 μM, not statistically significant in AsPC1 cells",increasing trend
same,Cell association and retention of [TotalF]rucaparib and [TotalF]olaparib after exposure to DNA-damaging reagent,AsPC1 cells [3],increased
same,γH2AX expression,PSN1 cells [4]; 100 μM,increasing trend
same,Upregulation of PARP proteins,"PSN1 cells [4]; 100 μM, flow cytometry",< 10%
O=C1NCCn2c(-c3ccc(OCC[18F])cc3)nc3cccc1c32 [[^18F]FTT],Tumour-to-muscle (T/M) ratio,breast cancer xenografts,1.2–1.9
CNCc1ccc(-c2[nH]c3cc(F)cc4c3c2CCNC4=O)cc1 [rucaparib],Weighted cellular efflux half-life,AsPC1 cells [5],49.9 ± 6.8 min
same,Efflux: fraction exiting cells,AsPC1 cells [5],more than 50%
same,Cellular efflux half-life,SW620 cells,20 min
same,Fraction of patients who benefited from treatment,pancreatic cancer,two-thirds
same,PARP1 expression (MFI) after exposure of PARP inhibitors,"AsPC1 cells [2]; 10 μM, flow cytometry",upregulated
same,Blood half-life,[6],84 to 90 min
same,18F signal of [18F]rucaparib in tumour sections from treated tumours,PSN1 xenografts [7],significantly reduced
same,PARP1 expression (MFI) after exposure of PARP inhibitors,"PSN1 cells [4]; 10 μM, flow cytometry",upregulated
same,Weighted cellular efflux half-life,PSN1 cells [8],43.9 ± 3.2 min
same,Efflux: fraction exiting cells,PSN1 cells [8],more than 50%
O=C(c1cc(Cc2n[nH]c(=O)c3ccccc23)ccc1[18F])N1CCN(C(=O)C2CC2)CC1 [[^18F]olaparib],Tumour uptake,"PSN1 xenografts [9]; PSN1 xenografts, 1 h post-injection",3.16 ± 0.36 %ID/g
same,Weighted blood half-life,PSN1 xenografts [9]; same xenograft mice,32.3 min
CC1=CC(C)=[N+]2C1=Cc1ccc(CCC(=O)N3CCN(C(=O)c4cc(Cc5n[nH]c(=O)c6ccccc56)ccc4F)CC3)n1[B-]2(F)[18F] (centres unmarked) [[^18F]PARPi-FL],Tumour uptake,[10],< 1 %ID/g
O=C(c1cc(Cc2n[nH]c(=O)c3ccccc23)ccc1F)N1CCN(C(=O)C2CC2)CC1 [olaparib],Efflux: fraction exiting cells,AsPC1 cells [5],more than 50%
same,18F signal of [18F]rucaparib in tumour sections from treated tumours,PSN1 xenografts [7],significantly reduced
same,Efflux: fraction exiting cells,PSN1 cells [8],more than 50%
